Laboratory results from US20160067232A1, “METHODS FOR TREATING A STROKE-RELATED SENSORIMOTOR IMPAIRMENT USING AMINOPYRIDINES” (Acorda Therapeutics, Inc., priority 2011, published 2016).
“And” between values parts separate entries of the source, which are not always exact repeats. Equal entries are not always repeated.

Experiments:
[1] = tested on: rats with middle cerebral artery occlusion (MCAO); test: Cylinder test, overall asymmetry (%), MCAO rats (Example 2); assay type: in vivo, Sprague Dawley rat
Procedure: Dosing and Treatment: Rats were treated in accordance with the dosing schedule shown in Tables 2A, 2B, 3 and FIG. 2, with each Phase being a two week period of time. A solution of 4-AP was used in this experiment. Dosing was started at 4 weeks after ischemic event. 4-aminopyridine was dissolved in water for injection (WFI, Cellgro) and sterile filtered. […] Vehicle control treatment was WFI delivered at 2 mL/kg by gastric gavage. […] Starting on day 30 after MCAO (Day 30, start of phase 1), the animals received gavage dosing of solutions (2 mL/kg) approximately 12 hours apart, for a total of five doses. The same schedule was repeated with different treatment on Day 44 and Day 58 for phase 2 and 3 of the study, respectively. Animals were not treated during the 10 days between phases (washout period). Treatment groups: Dosing was started 4 weeks after MCAO surgery. During these 4 weeks, weekly behavioral assessments, as defined below, were performed. Two dose levels of 4-AP plus vehicle control were assessed, with treatment starting at 4 weeks after ischemic event. […] Animals were given the first dose and behavioral assessments were performed starting 60 minutes after dosing. Animals then received the second dose that day at the appropriate time and b.i.d (preferably every 12 hours) thereafter for 2 more days (3 total days of dosing, 5 total doses). One hour after the 5th dose, animals were subjected to behavioral assessments as defined below. Following the final behavioral assessment, drug was withdrawn for 10 or 11 days, behavior was re-assessed, and then animals were re-challenged with a cross-over treatment (Phase 2 of Table 2B) as described in Tables 2A, 2B and 3, followed by the same behavioral testing and dosing regimen. This cross-over was repeated one more time as well (Phase 3 of Table 2B) (see FIG. 2). Cylinder Test: Evaluation was performed at Day −1 (pre-operation), Day 7, Day 21, Day 30, Day 32, Day 44, Day 46, Day 58, Day 60. This test assessed limb use asymmetry. Rats were placed in a transparent cylinder (20 cm in diameter and 30 cm in height) for 3-6 minutes. A mirror was placed behind the cylinder to determine forelimb movements when animal was turned away from the camera. […] Simultaneous use of both left and right forelimbs while contacting the wall during a full rear was also scored. A total number of 20 forelimb placings were counted during a trial. Data was expressed in terms of percent use of the non-impaired and or impaired forelimb relative to the total number of limb use observations for wall movements.

[2] = human subjects; Donovan et al., Spinal Cord 2000; cited from earlier work
[3] = Hayes et al., J. Clin. Pharmacol. 2003; cited from earlier work
[4] = tested on: rats with middle cerebral artery occlusion (MCAO); test: Hindlimb placing test, MCAO rats, dose escalation study (Example 17); assay type: in vivo, Sprague Dawley rat
Text: Limb Placing: Evaluated at Day −1 (pre-operation), Day 1, Day 7, Day 14, Day 21, Day 28, Day 30, Day 32, Day 42, Day 44, Day 46, Day 56, Day 58, Day 60. The limb placing tests were divided into forelimb and hindlimb tests. For the forelimb-placing test, the examiner held the rat close to a tabletop and scored the rat's ability to place the forelimb on the tabletop in response to whisker, visual, tactile, or proprioceptive stimulation. Similarly, for the hindlimb placing test, the examiner assessed the rat's ability to place the hindlimb on the tabletop in response to tactile and proprioceptive stimulation. Together, these tests reflect function and recovery in the sensorimotor systems (De Ryck et al., Brain Res 1992; 573:44-60). Separate sub-scores were obtained for each mode of sensory input and added to give total scores (for the forelimb placing test: 0=normal, 12=maximally impaired; for the hindlimb placing test: 0=normal; 6=maximally impaired). Scores were given in half-point increments (see below). Typically, there is a slow and steady recovery of limb placing behavior during the first month after stroke.
Hindlimb placing test (0-6): • tactile placing (dorsal (0-2), lateral (0-2)) • proprioceptive placing (0-2).
For each subtest, animals are scored as followed: • 0.0=immediate response • 0.5=response within 2 seconds • 1.0=response of 2-3 seconds • 1.5=response of >3 seconds • 2.0=no response
4-AP was evaluated for its ability to promote functional sensorimotor improvement following ischemic stroke in rats with stable motor deficits at times remote from their ischemic events. The animal model of ischemic stroke, i.e., the MCAO model, used in this example is the same as the animal model described in Example 2.
In the MCAO model recovery begins to plateau by 4 weeks after MCAO, at which time there are still measurable deficits in sensorimotor function. However, 4 weeks after MCAO there may still be slow continued endogenous recovery.
4-aminopyridine was dissolved in water for injection (WFI, Cellgro) and sterile filtered. Solutions of 0.25 mg/mL, 0.5 mg/mL and 1.0 mg/mL of 4-aminopyridine were delivered by gastric gavage at 2 mL/kg for final doses of 0.5 mg/kg, 1 mg/kg or 2.0 mg/kg respectively. Vehicle control treatment was WFI delivered at 2 mL/kg by gastric gavage. Starting on Day 56 after MCAO, animals received gastric gavage of solutions (2 mL/kg) approximately 12 hours apart. The vehicle control group was treated with water for all doses on Days 56-65. For the treated group, six doses of 4-aminopyridine at 0.5 mg/kg were delivered over Days 56-59, followed by six doses at 1.0 mg/kg over Days 59-62 and six doses at 2.0 mg/kg over Days 62-65. Animals in all groups were not treated during Days 66-70. p.o.=par oral. […]

Nc1ccncc1 [4-aminopyridine]
Cylinder Test Score (Overall Asymmetry (%)) Group 2, D30 ([1]; Group 2, D30, treatment phase 1 (low-dose 4-AP), individual animals and Mean (N=15), listed as 4-AP): 0.00% and 75.00% and 23.33% and 20.00% and 6.90% | Cylinder Test Score (Overall Asymmetry (%)) Group 2, D32 ([1]; Group 2, D32, treatment phase 1 (low-dose 4-AP), individual animals and Mean (N=15), listed as 4-AP): 33.33% and 16.00% and 20.00% and 50.00% and 0.00% | Cylinder Test Score (Overall Asymmetry (%)) Group 2, D58 ([1]; Group 2, D58, treatment phase 3 (high-dose 4-AP), individual animals and Mean (N=12), listed as 4-AP): 50.00% and 30.00% and 88.00% and 33.33% | Cylinder Test Score (Overall Asymmetry (%)) Group 2, D60 ([1]; Group 2, D60, treatment phase 3 (high-dose 4-AP), individual animals and Mean (N=14), listed as 4-AP): 64.00% and 20.00% and 10.00% and 0.00% (3×) and −100.00% (2×) | Cylinder Test Score (Overall Asymmetry (%)) Group 3, D44 ([1]; Group 3, D44, treatment phase 2 (high-dose 4-AP), individual animals and Mean (N=13), listed as 4-AP): 40.00% and 20.00% and 100.00% and 0.00% | Cylinder Test Score (Overall Asymmetry (%)) Group 3, D46 ([1]; Group 3, D46, treatment phase 2 (high-dose 4-AP), individual animals and Mean (N=13), listed as 4-AP): 50.00% and −60.00% and 0.00% and 6.90% | Cylinder Test Score (Overall Asymmetry (%)) Group 3, D58 ([1]; Group 3, D58, treatment phase 3 (low-dose 4-AP), individual animals and Mean (N=15), listed as 4-AP): 0.00% (2×) and 5.00% | Cylinder Test Score (Overall Asymmetry (%)) Group 3, D60 ([1]; Group 3, D60, treatment phase 3 (low-dose 4-AP), individual animals and Mean (N=15), listed as 4-AP): −25.00% and 0.00% (2×) and 16.00% | Effect on body symmetry and coordination, cylinder test (FIG. 7) ([1]; reversible and dose-dependent): effective to improve body symmetry and coordination | delay in the peak concentration in cerebrospinal fluid compared to that in the blood [2]: approximately an hour | half life [3]: 1 to 1.5 h | Hind limb placing score compared to vehicle ([4]; 0.5 mg/kg b.i.d. p.o., Day 59): improved with the low dose but did not reach significance | Hind limb placing compared to vehicle ([4]; 1 mg/kg b.i.d. p.o., Day 62, p<0.05): measureable improvement | Hind limb function compared to vehicle ([4]; 2 mg/kg b.i.d. p.o., Day 65, p<0.001): significant improvements | Hind limb score after treatment withdrawn for 5 days ([4]; Day 70, p<0.05): remained greater than the vehicle treated group
